From paper PMC9343080, “Distribution- and Metabolism-Based Drug Discovery: A Potassium-Competitive Acid Blocker as a Proof of Concept” (Research, 2022)

Assay: Metabolite identification and profiling in human liver microsomes
Assay type: in vitro ADME
Details: SH-337 10 µM, 60 min incubation
Experimental: Liver microsomes (1 mg protein/mL) were suspended in phosphate buffer (50 mM, pH 7.4) containing MgCl2 (6 mM). […] The reactions were initiated at 37°C by the addition of 1 mM NADPH and terminated at 30 min or 60 min (30 min for rat; 60 min for human). The samples were precipitated with acetonitrile at 1 : 2 and further centrifuged; the supernatants were dried with a stream of N2 gas. The residues were reconstituted with 300 μL of 10% acetonitrile/H2O (0.1% TFA) and analyzed by LC-MS/MS. The assays were pursued under the conditions provided in Supplementary Tables S4, S6, S7, and S8.

For `CNCc1cc(-c2ccc(OCC3CC3)cc2F)n(S(=O)(=O)c2cccnc2)c1.Cl.Cl` [SH-337, 1-(5-(4-(cyclopropylmethoxy)-2-fluorophenyl)-1-(pyridin-3-ylsulfonyl)-1H-pyrrol-3-yl)-N-methylmethanamine dihydrochloride], the “Relative peak area, HLMs” value was 68.9%.
